Assay results published in ChEMBL document CHEMBL5726652, “Oxazole orexin receptor antagonists” (2017).

Target: T1, Orexin receptor type 2 (Homo sapiens, UniProt O43614)
T1 sequence (O43614 whole entry): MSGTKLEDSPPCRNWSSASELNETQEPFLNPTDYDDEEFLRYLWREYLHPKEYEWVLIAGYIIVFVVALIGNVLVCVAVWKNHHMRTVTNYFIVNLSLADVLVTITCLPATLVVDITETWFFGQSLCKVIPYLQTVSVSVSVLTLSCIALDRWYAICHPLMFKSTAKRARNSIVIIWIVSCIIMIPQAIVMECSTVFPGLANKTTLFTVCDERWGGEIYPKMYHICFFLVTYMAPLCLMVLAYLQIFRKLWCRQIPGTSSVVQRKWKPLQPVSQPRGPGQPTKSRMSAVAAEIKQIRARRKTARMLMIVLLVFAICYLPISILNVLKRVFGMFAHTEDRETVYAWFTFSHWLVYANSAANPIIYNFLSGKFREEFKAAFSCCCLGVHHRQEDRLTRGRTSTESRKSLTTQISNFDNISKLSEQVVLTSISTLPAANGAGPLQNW
Test: FLIPR Ca2+ Flux Assay: For intracellular calcium measurements, Chinese hamster ovary (CHO) cells expressing the rat orexin-1 receptor or the human orexin-2 receptor, are grown in Iscove's modified DMEM containing 2 mM L-glutamine, […], 1% hypoxanthine-thymidine supplement, 100 U/ml penicillin, 100 μg/ml streptomycin and 10% heat-inactivated fetal calf serum (FCS). The cells are seeded at 20,000 cells/well into Becton-Dickinson black 384-well clear bottom sterile plates coated with poly-D-lysine. All reagents were from GIBCO-Invitrogen Corp. The seeded plates are incubated overnight at 37° C. and 5% CO2. Ala-6,12 human orexin-A as the agonist is prepared as a 1 mM stock solution in 1% bovine serum albumin (BSA) and diluted in assay buffer (HBSS containing 20 mM HEPES, 0.1% BSA and 2.5 mM probenecid, pH7.4) for use in the assay at a final concentration of 70 pM. Test compounds are prepared as 10 mM stock solution in DMSO, then diluted in 384-well plates, first in DMSO, then assay buffer. On the day of the assay, cells are washed 3 times with 100 μl assay buffer and then incubated for 60 min (37° C., 5% CO2) in 60 μl assay buffer containing 1 μM Fluo-4AM ester, 0.02% pluronic acid, and 1% BSA. The dye loading solution is then aspirated and cells are washed 3 times with 100 μl assay buffer. 30 μl of that same buffer is left in each well. […]
Type: cell-based

| Structure (SMILES) | IC50 |
| --- | --- |
| COC(=O)Cc1nc([C@@H]2CC[C@@H](C)N(C(=O)c3ccccc3-n3nccn3)C2)oc1-c1ccccc1 | 33 nM |
| Cc1oc([C@@H]2CC[C@@H](C)N(C(=O)c3cscc3-c3ncccn3)C2)nc1C(C)(C)O | 56 nM |
